Data as given in patent US4238496A, “4-Substituted thiazolyl-2-oxamic acids and salts and esters thereof” (Boehringer Ingelheim GmbH, priority 1978, dated 1980).
Counter-ions that a name gives are not always drawn. Like-named read-outs stand apart in the source and are kept apart here.

Test system: Passive Cutaneous Anaphylaxis
Assay: Passive Cutaneous Anaphylaxis test (PCA) in rats
Assay type: in vivo
Conditions: Rattus norvegicus, read-out: ED50 (dose reducing the size of the blued area by 50%)
Experimental: The compounds of the present invention, that is, those embraced by formula I and their non-toxic, pharmacologically acceptable salts, have useful pharmacodynamic properties.
The anti-allergic properties were ascertained in rats by the Passive Cutaneous Anaphylaxis test (PCA) essentially as described by Goose and Blair (Immunology 16: 749-760,1969). Rat serum was diluted so that the skin reactions with diameters between 10 and 15 mm in unsensitized rats were produced. The PCA test was performed in duplicate by injecting 0.1 ml of this antiserum dilution on each side of the shaved back of rats. Rats so treated were injected intravenously (i.v.) twenty-four hours later with 5 mg ovalbumin in 0.5 ml of 2% Evans Blue and the test substance to be tested by the i.v. route. In the case of substances tested orally, the i.v. ovalbumin challenge was 0.015 mg in the 0.5 ml of 2% Evans Blue solution administered 20-30 minutes after the oral administration of the test substance. Thirty minutes after challenge the rats were killed by CO2 asphyxiation and the skin reflected the diameters, in millimeters, of the blued areas were measured and the mean diameter determined. The circular area was calculated and the mean area in square millimeters of the control group was considered as 100% and the results of the compound test groups were expressed as a percentage change from these control values. From dose response curves the dose reducing the size of the blued area by 50% (ED50) was estimated.

[1] = p.o., 0.015 mg ovalbumin i.v. challenge 20-30 minutes after oral administration
[2] = iv, test substance given i.v. with 5 mg ovalbumin in 0.5 ml of 2% Evans Blue

SMILES	ED50 [1] [mg/kg]	ED50 [2] [mg/kg]
CCOC(=O)C(=O)Nc1nc(-c2ccc(OCC)cc2)cs1 [Ethyl 4-(4'-ethoxy-phenyl)-thiazolyl-2-oxamate]	2.07	–
COc1cccc(-c2csc(NC(=O)C(=O)O)n2)c1 [4-(3'-methoxy-phenyl)-thiazolyl-2-oxamic acid]	2	0.16
CN(C)c1ccc(-c2csc(NC(=O)C(=O)O)n2)cc1 [4-(4'-dimethylamino-phenyl)-thiazolyl-2-oxamic acid]	0.34	0.02
COc1ccc(OC)c(-c2csc(NC(=O)C(=O)O)n2)c1 [4-(2',5'-dimethoxy-phenyl)-thiazolyl-2-oxamic acid ethanolamine salt]	–	0.4
O=C(O)C(=O)Nc1nc(-c2ccc3c(c2)OCCO3)cs1 [4-(benzodioxanyl)-thiazolyl-2-oxamic acid ethanolamine salt]	0.7	0.02
O=C(O)C(=O)Nc1nc(-c2ccncc2)cs1 [4-[pyridyl-(4')]-thiazolyl-2-oxamic acid ethanolamine salt]	–	0.05
Cc1sc(NC(=O)C(=O)O)nc1-c1ccccc1 [4-phenyl-5-methyl-thiazolyl-2-oxamic acid]	2.04	0.19
CN(C)c1cccc(-c2csc(NC(=O)C(=O)O)n2)c1 [4-(3' -dimethylamino-phenyl)-thiazolyl-2-oxamic acid ethanolamine salt]	1.06	0.34
COc1ccc(-c2csc(NC(=O)C(=O)O)n2)cc1OC [4-(3',4'-dimethoxy-phenyl)-thiazolyl-2-oxamic acid]	–	0.13
COc1ccccc1-c1csc(NC(=O)C(=O)O)n1 [4-(2'-Methoxy-phenyl)-thiazolyl-2-oxamic acid]	–	1.08
O=C(O)C(=O)Nc1nc(-c2cccnc2)cs1 [4-[pyridyl-(3')]-thiazolyl-2-oxamic acid ethanolamine salt]	–	0.16
COc1ccc(-c2csc(NC(=O)C(=O)O)n2)c(OC)c1 [4-(2',4'4'-dimethoxy-phenyl)-thiazolyl-2-oxamic acid]	–	0.39
COC(=O)C(=O)Nc1nc(-c2ccc(OC)c(OC)c2)cs1 [Methyl 4-(3',4'-dimethoxy-phenyl)-thiazolyl-2-oxamate]	1.2	–
CCOC(=O)C(=O)Nc1nc(-c2ccc(O)c(C)c2)cs1 [Ethyl 4-(3'-methyl-4'-hydroxy-phenyl)-thiazolyl-2-oxamate]	2.1	–
CCOC(=O)C(=O)Nc1nc(-c2ccncc2)cs1 [Ethyl 4-[pyridyl-($')]-thiazolyl-2-oxamate]	1.2	–
